Source: publication PMC9853848 (Journal of the American Chemical Society, 2022)
Read-outs that look alike come from different tables or passages of the source.

How the values were obtained:
[1] = system: T1, P91; format: biochemical, uncultured bacterium; settings: read-out: KM (μM) ^b
T1 construct: full-length, N-terminal His6-tag, purified recombinant (E. coli); Cys118-His199-Asp167 triad

[2] = target: T1, P91; format: biochemical, uncultured bacterium
[3] = system: P91; settings: P91-R2; 25 °C, pH 8.0; covalent intermediate

SMILES: CCOP(=O)(OCC)Oc1ccc2c(c1)Oc1cc(OP(=O)(OCC)OCC)ccc1C21OC(=O)c2ccccc21 [compound 1, FDDEP]
- Km [1]: 46 ± 9.7 µM
- Ki [2]: 290 ± 89 µM

SMILES: CCOP(=O)(OCC)Oc1ccc([N+](=O)[O-])cc1 [compound 2, paraoxon-ethyl]
- Km [3]: 290 µM
